Tests used:
MCF7 = assay: Cytotoxicity against Homo sapiens (human) MCF7 cells at 100 uM after 48 hr by SRB assay relative to control; type: cell-based; settings: mcf7, 48 h
[1] = Binding affinity to Poly (dA-dT) DNA at 1:5 compound to DNA base pair ratio
SF-268 = assay: Cytotoxicity against Homo sapiens (human) SF268 cells at 100 uM after 48 hr by SRB assay relative to control; type: cell-based; settings: sf-268, 48 h
NCI-H460 = assay: Cytotoxicity against Homo sapiens (human) NCI-H460 cells at 100 uM after 48 hr by SRB assay relative to control; type: cell-based; settings: nci-h460, 48 h
CAKI-1 = assay: Growth inhibition of Homo sapiens (human) Caki1 cells after 48 hr by SRB assay; type: cell-based; settings: caki-1, 48 h
A498 = assay: Growth inhibition of Homo sapiens (human) A498 cells after 48 hr by SRB assay; type: cell-based; settings: a498, 48 h
Pneumocystis carinii [2] = assay: Antimicrobial activity against Pneumocystis carinii assessed as ATP level detection by bioluminescence assay; type: functional, organism-based
DNA = assay: Binding affinity to Bos taurus (calf) thymus DNA at 1:5 compound to DNA base pair ratio; type: nucleic-acid assay
SN12C = assay: Growth inhibition of Homo sapiens (human) SN12C cells after 48 hr by SRB assay; type: cell-based
[3] = Selectivity index, ratio of GI50 for human tumor cells to IC50 for Pneumocystis carini
Pneumocystis carinii [4] = assay: Ratio of pentamidine IC50 to compound IC50 for Pneumocystis carinii assessed as ATP level detection by bioluminescence assay; type: functional
[5] = Growth inhibition of Homo sapiens (human) ovarian cancer cells after 48 hr by SRB assay; type: cell-based; settings: cancer cell lines
Malme-3M = assay: Growth inhibition of Homo sapiens (human) MALME-3M cells after 48 hr by SRB assay; type: cell-based
SR = assay: Growth inhibition of Homo sapiens (human) SR cells after 48 hr by SRB assay; type: cell-based

N=C(N)c1ccc(N2CCCN(c3ccc(C(=N)N)cc3)CC2)cc1
Activity (MCF7): 87% | ΔTm [1]: 23.1 °C | Activity (SF-268): 94% | Activity (NCI-H460): 44% | pGI50 (CAKI-1): 5.1 | pGI50 (A498): 5.1 | IC50 (Pneumocystis carinii [2]): 2000 nM | ΔTm (DNA): 15 °C | pGI50 (SN12C): 5.1 | Selectivity Index [3]: 32

N=C(NC1CC1)c1ccc(N2CCCN(c3ccc(C(=N)NC4CC4)cc3)CC2)cc1
Activity (MCF7): 87% | ΔTm [1]: 23.6 °C | Activity (SF-268): 104% | Activity (NCI-H460): 71% | IC50 (Pneumocystis carinii [2]): 1400 nM | ΔTm (DNA): 15.3 °C | Selectivity Index [3]: >71

N#Cc1ccc(N2CCN(c3ccc(C#N)cc3)CC2)cc1
Activity (MCF7): 102% | ΔTm [1]: -0.2 °C | Activity (SF-268): 105% | Activity (NCI-H460): 106% | IC50 (Pneumocystis carinii [2]): > 125000 nM | ΔTm (DNA): 0 °C

N#Cc1ccc(N2CCCN(c3ccc(C#N)cc3)CC2)cc1
Activity (MCF7): 70% | Activity (SF-268): 101% | Activity (NCI-H460): 92%

N=C(N)c1ccc(NC(=O)CCCC(=O)Nc2ccc(C(=N)N)cc2)cc1
Ratio IC50 (Pneumocystis carinii [4]): 167 | Activity (MCF7): 122% | ΔTm [1]: 11.4 °C | Activity (SF-268): 121% | Activity (NCI-H460): 105% | ΔTm (DNA): 5.6 °C | Selectivity Index [3]: >33333

N=C(N)c1ccc(COc2ccccc2OCc2ccc(C(=N)N)cc2)cc1
Activity (MCF7): 42% | ΔTm [1]: -0.1 °C | Activity (SF-268): 27% | Activity (NCI-H460): 5% | pGI50 (CAKI-1): 5.1 | pGI50 (A498): 5.1 | IC50 (Pneumocystis carinii [2]): 1700 nM | ΔTm (DNA): 0.1 °C | pGI50 (SN12C): 5.1 | Selectivity Index [3]: 24

N=C(N)c1ccc(NC(=O)CCCCC(=O)Nc2ccc(C(=N)N)cc2)cc1
Ratio IC50 (Pneumocystis carinii [4]): 167 | Activity (MCF7): 34% | ΔTm [1]: 14.4 °C | Activity (SF-268): 52% | Activity (NCI-H460): 75% | ΔTm (DNA): 8.7 °C | Selectivity Index [3]: >50000

N=C(N)c1ccc(OC(=O)c2ccc(C(=O)Oc3ccc(C(=N)N)cc3)cc2)cc1 [BIS(4-CARBAMIMIDOYLPHENYL)TEREPHTHALATE]
Activity (MCF7): 79% | ΔTm [1]: 10.4 °C | Activity (SF-268): 94% | Activity (NCI-H460): 96% | ΔTm (DNA): 9.9 °C | Selectivity Index [3]: >8

N=C(N)c1ccc(OCc2cccc(COc3ccc(C(=N)N)cc3)c2)cc1
Activity (MCF7): 0% | ΔTm [1]: 23.9 °C | Activity (SF-268): 0% | Activity [5]: Non-toxic | Activity (NCI-H460): 0% | IC50 (Pneumocystis carinii [2]): 2600 nM | ΔTm (DNA): 14 °C | Selectivity Index [3]: 3

N=C(NC1CC1)c1ccc(N2CCN(c3ccc(C(=N)NC4CC4)cc3)CC2)cc1
Activity (MCF7): 108% | ΔTm [1]: 23.9 °C | Activity (SF-268): 115% | Activity (NCI-H460): 74% | IC50 (Pneumocystis carinii [2]): 5400 nM | ΔTm (DNA): 14.5 °C | Selectivity Index [3]: >19

N=C(N)c1ccc(OCCCCCOc2ccc(C(=N)N)cc2)cc1 [PENTAMIDINE]
ΔTm [1]: 20.6 °C | ΔTm (DNA): 11.6 °C | Selectivity Index [3]: 20

c1cc(N2CCCN(c3ccc(C4=NCCCN4)cc3)CC2)ccc1C1=NCCCN1
Activity (MCF7): 42% | ΔTm [1]: 21.3 °C | Activity (SF-268): 55% | Activity (NCI-H460): 28% | Activity (A498): Toxic | IC50 (Pneumocystis carinii [2]): 4500 nM | ΔTm (DNA): 15.5 °C | Activity (SN12C): Toxic | Selectivity Index [3]: 18

c1cc(N2CCN(c3ccc(C4=NCCCN4)cc3)CC2)ccc1C1=NCCCN1
Activity (MCF7): 77% | ΔTm [1]: 17.9 °C | Activity (SF-268): 93% | Activity (NCI-H460): 18% | Activity (A498): Toxic | IC50 (Pneumocystis carinii [2]): 3000 nM | ΔTm (DNA): 12.2 °C | Activity (SN12C): Toxic | Selectivity Index [3]: >33

CCCCNC(=N)c1ccc(N2CCCN(c3ccc(C(=N)NCCCC)cc3)CC2)cc1
Activity (MCF7): 39% | ΔTm [1]: 13.3 °C | Activity (SF-268): 101% | Activity (NCI-H460): 17% | pGI50 (A498): 6.8 | IC50 (Pneumocystis carinii [2]): 357 nM | ΔTm (DNA): 11.8 °C | pGI50 (Malme-3M): 6.4 | pGI50 (SR): 6.2 | Selectivity Index [3]: 36

— ChEMBL document CHEMBL3046688, “Antitumor and Anti-Pneumocystis Carinii Activities of Novel Bisbenzamidines” (Med Chem Res, 2005)
